In EP0640690A1, “Monoclonal antibodies specific for 5-dihydrotestosterone” (ELI LILLY AND COMPANY, priority 1993, dated 1995):

What was measured:
[1] = tested on: 5-α-reductase enzyme from a female rat liver preparation; test: 5-α-reductase inhibitor assay: 5-DHT formed from testosterone measured by MoAb 276-1 ELISA; type: biochemical; conditions: concentration inhibiting 100% of activity; testosterone substrate, NADPH, pH 6.5, 37°C, 20 minutes; one experiment
Procedure: This reaction mixture was incubated at 37°C for 20 minutes. The enzyme was then inactivated by incubating the reaction mixture at 80°C for 10 minutes. […] In additon, serial dilutions of the reaction mixture were made and 100 µl of each of these dilutions was added to separate wells. To each well was added 100 µl (0.35 µg) of MoAb 276-1. This plate was then incubated at 37°C for 2 hours. After this incubation period, the plate was washed four times with phosphate buffered saline (PBS). After the washing, 200 µl of anti-mouse antibody/alkaline phosphatase conjugate was added to each well. This was then incubated at 37°C for 1 hour. After the incubation each well was washed four times with PBS. To each well was then added 200 µl of p-nitrophenylphosphate. This reaction was then incubated for one hour at 37°C. Spectrophotometric measurement of each well was then performed, reading at 410 nm. This measurement provided the baseline activity of 5-α-reductase activity without an inhibitor. […] This compound was prepared as described in U.S. Patent 5,239,075, issued August 24, 1993, which is herein incorporated by reference.

[2] = tested on: monoclonal antibody MoAb 276-1 (anti-5-dihydrotestosterone, hybridoma ATCC HB 11410); test: competitive ELISA: competition with bound avidin/5-DHT complex for the antibody; type: binding, mouse; conditions: for IC50: concentration inhibiting 50% of antibody binding to immobilized avidin/5-DHT, read-out: IC₅₀
Procedure: The usual method of quantifying specificity of an antibody is by way of a competitive ELISA assay, a technique which is well known to one of skill in the art. In such an assay the reactivity is determined by binding an avidin/5-DHT complex to a support, such as a well in a microtiter plate, as described infra. A limited amount of anti-5-DHT antibody (such as MoAb 276-1) is then added simultaneously with differing concentrations of 5-dihydrotestosterone, which competes with the bound 5-DHT for the antibody. Unbound antibody is then removed from the wells. The concentration of 5-dihydrotestosterone which inhibits 50% of the binding of the antibody is designated as the IC₅₀. The experiment is run in parallel using testosterone in place of the 5-dihydrotestosterone. The IC₅₀ of the testosterone is then compared with the IC₅₀ of the 5-dihydrotestosterone to give a relative binding affinity.
The most preferred antibody of this invention, MoAb 276-1, has an IC₅₀ of 537 nM for 5-dihydrotestosterone, while an IC₅₀ of 4568 nM was obtained for testosterone. This antibody, therefore, is 8.5 times more specific for 5-dihydrotestosterone than for testosterone. The hybridoma producing the monoclonal antibody MoAb 276-1 is available from the American Type Culture […] (ATCC) in Rockville, Maryland, 20852 under accession number ATCC HB 11410.

Cc1ccc2c(c1)CC[C@@H]1[C@@H]2CCC(=O)N1C (racemic) [trans-dl-4,8-dimethyl-1,2,3,4,4a,5,6,10b-octahydrobenzo-[f]quinolin-3-one]
IC₁₀₀ [1]: 0.3 µM

C[C@]12CCC(=O)C[C@@H]1CC[C@@H]1[C@@H]2CC[C@]2(C)[C@@H](O)CC[C@@H]12 [5-dihydrotestosterone, 17β-hydroxy-5α-androstan-3-one]
IC50 [2]: 537 nM
times more specific for 5-dihydrotestosterone than for testosterone ([2]; ratio of IC₅₀ of testosterone to IC₅₀ of 5-dihydrotestosterone): 8.5 times

C[C@]12CC[C@H]3[C@@H](CCC4=CC(=O)CC[C@@]43C)[C@@H]1CC[C@@H]2O [testosterone]
IC50 [2]: 4570 nM
